Assays:
rat MT-I cRNA = test: cell-free ribozyme cleavage of labeled rat MT-I cRNA; assay type: biochemical; conditions: for cleavage activity on rat MT-I cRNA: cell-free, excess unlabeled ribozyme, 37° C., 16 hours
Description: (§1) Bluescript plasmids containing the rat MT cDNA (pBSMT-I and pBSMT-2) were constructed as described above. A plasmid containing the mouse MT-I (pSP-MT-I) and a second plasmid (SDF 102.C1) containing MT-II cDNA (Durnam et al., 1980, Proc. Natl. Acad. Sci. USA 77:6511-6515) were linearized with HindIII and in vitro transcribed into labeled MT cRNAs with [α-32P]UTP, T3 RNA polymerase (Promega, Madison, Wis.), and the Maxiscript In Vitro Transcription Kit (Ambion, Inc, Austin, Tex.). Ribozymes were generated as unlabeled molecules from pRz1-2 and pRz4-9 using either the T3 or T7 promoter of the pClneo vectors, and unlabeled nucleoside triphosphates.
(§2) To test ribozyme activity, radiolabeled rat metallothionein cRNAs were synthesized by in vitro transcription from linearized plasmids and incubated with an excess of unlabeled ribozymes at 37° C. for 16 hours. The enzymatic activity was terminated with an equal volume of stop buffer. After denaturing at 95° C. for 2 minutes, the cleavage products were separated in a 6% polyacrylamide/8M urea gel, dried and exposed to X-ray film to obtain autoradiograms. The uncut rat MT-I (poly A) and MT-II (poly A) molecules were 435 nucleotides and 350 nucleotides, respectively. Rz1-2-mediated cleavage fragments of rat MT-I(poly A) were 360 nucleotides and 115 nucleotides in length. The cleavage fragments produced by Rz4-9 activity on MT-II(polyA) were 260 nucleotides and 90 nucleotides in length.
(§3) Initial experiments were designed to determine effective and linear catalytic temperature ranges for Rz1-2 and Rz4-9. A ribozyme and a labeled substrate were mixed in a 1:1 molar ratio in a 10 μL reaction mixture composed of 40 mM Tris-HCl (pH 7.5) and 20 mM MgCl2 (previously determined to be optimal for cleavage activity). The reaction mixture was denatured for 2 minutes at 95° C. and then snapcooled on ice for 5 minutes. Catalytic reactions were conducted at 25° C., 37° C., and 50° C. for 1, 3, or 16 hours. […] An excess of unlabeled anti-MT Rzs (Rz1-2 and Rz4-9) and their corresponding mutants (Rz2-6 and Rz3-3) were mixed with labeled rat or mouse MT-I or MT-II cRNA and incubated at 37° C. for 16 hours. At the end of these experiments, all catalytic reactions were terminated with an equal volume of stop buffer (10 mM EDTA, 90% formamide, 0.1% bromophenol blue, and 0.1% xylene cyanol). After denaturing at 95° C. for 2 minutes, the cleavage products were separated in a 6% polyacrylamide/8M urea gel, dried, and exposed to X-ray film to obtain autoradiograms. The sizes of the uncut rat MT-I (poly A) and MT-II (poly A) molecules were 435 nucleotides and 350 nucleotides, respectively. Rz1-2-mediated cleavage fragments of rat MT-I(poly A) were of 360 nucleotides and 115 nucleotides in length and those produced by Rz4-9 activity on MT-II(polyA) were 260 nucleotides and 90 nucleotides. Incubation with the mutant Rzs, Rz2-6 or Rz3-3, produced no products.
(§4) Hammerhead ribozymes were tested for specific endonuclease activity under cell-free conditions. In vitro transcription from pBSMT-I and pBSMT-II using 2.5 μg HindIII linearized plasmid and T3 RNA polymerase yielded 5 μg of rat MT-I and MT-II cRNA. In parallel, mouse MT-I and MT-II cRNA were generated from plasmids containing mouse MT sequences (pSP-MT-I). These molecules containing the entire metallothionein coding region and a poly (A) tail 435 nucleotides (rat MT-I cRNA), 350 nucleotides (rat MT-II cRNA), 380 nucleotides ([…]) and 460 nucleotides ([…]) in length. They were used as substrate for the ribozyme reactions. […] Similar sequence specificity data were obtained for mouse metallothionein cRNAs. All cleavage products were of the predicted sizes.

rat MT-II cRNA = test: cell-free ribozyme cleavage of labeled rat MT-II cRNA; assay type: biochemical; conditions: for cleavage activity on rat MT-II cRNA: cell-free, excess unlabeled ribozyme, 37° C., 16 hours
Description: as §1, §2, §3, §4

[1] = cell-free cleavage, 1:1 molar ratio

## Rz1-2: hammerhead ribozyme, SEQ ID NO:6, designed to cleave mouse and rat MT-I mRNA (GCGCCUUUGCACUGAUGAGUCCGUGAGGACGAAACACAGCCCU; listed as RNA, chemistry not given here)
Rat MT-I cRNA; cell-free cleavage
  optimal Mg^2+ for ribozyme activity: 20 mM
  period over which ribozyme remained active: 16 h
  temperature at which ribozyme is most effective: 37 °C
Rat MT-I cRNA; [1]
  temperature range over which ribozyme is active: 25-50 °C
Rat MT-I cRNA
  cleavage activity on rat MT-I cRNA: active
Rat MT-II cRNA
  cleavage activity on rat MT-II cRNA: no activity

## Rz4-9: hammerhead ribozyme, SEQ ID NO:7, designed to cleave MT-II mRNA (CCUCUUUGCACUGAUGAGUCCGUGAGGACGAAAUGCAGCCCU; listed as RNA, chemistry not fully specified)
Rat MT-I cRNA
  cleavage activity on rat MT-I cRNA: did not mediate rat MT-I cRNA cleavage
Rat MT-II cRNA; cell-free cleavage
  optimal Mg^2+ for ribozyme activity: 20 mM
  period over which ribozyme remained active: 16 h
  temperature at which ribozyme is most effective: 37 °C
Rat MT-II cRNA; [1]
  temperature range over which ribozyme is active: 25-50 °C
Rat MT-II cRNA
  cleavage activity on rat MT-II cRNA: cut only rat MT-II cRNAs
